16 molecules from patent US9174974B2, “Macrocyclic factor VIIa inhibitors” (BRISTOL-MYERS SQUIBB COMPANY, priority 2012, dated 2015) can be followed below.

Molecules are shown by their SMILES.

One test concerns the target human FVIIa (Homo sapiens (Human), UniProt P08709). Nature of the test: FVIIa Ki (37° C.), FVIIa-Xase assay. Conditions: for Ki: read-out: FVIIa Ki, nM 37° C.; for Ki(HK1)/Ki(FVIIa): selectivity ratio, tissue kallikrein (HK1) vs FVIIa. The format is biochemical.
A further test has as its target tissue kallikrein (HK1) (Homo sapiens (Human), UniProt P06870). Description: Tissue kallikrein-1 (HK1) Ki, fluorogenic substrate assay. Conditions: 37° C. It is filed as biochemical.

Sequence of human FVIIa (P08709 61-212): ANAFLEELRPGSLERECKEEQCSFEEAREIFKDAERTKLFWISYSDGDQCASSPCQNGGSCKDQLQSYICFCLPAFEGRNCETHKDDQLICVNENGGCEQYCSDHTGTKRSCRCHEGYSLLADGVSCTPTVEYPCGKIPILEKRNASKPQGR
Sequence of human FVIIa (P08709 213-466): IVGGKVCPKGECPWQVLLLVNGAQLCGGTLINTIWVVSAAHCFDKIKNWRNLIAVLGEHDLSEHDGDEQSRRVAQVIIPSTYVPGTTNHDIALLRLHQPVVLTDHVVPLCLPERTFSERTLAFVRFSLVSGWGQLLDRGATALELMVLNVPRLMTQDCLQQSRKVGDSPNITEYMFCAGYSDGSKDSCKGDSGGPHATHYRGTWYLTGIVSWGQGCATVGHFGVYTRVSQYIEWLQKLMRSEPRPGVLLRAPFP
Sequence of human FVIIa (P13726 33-295 partner): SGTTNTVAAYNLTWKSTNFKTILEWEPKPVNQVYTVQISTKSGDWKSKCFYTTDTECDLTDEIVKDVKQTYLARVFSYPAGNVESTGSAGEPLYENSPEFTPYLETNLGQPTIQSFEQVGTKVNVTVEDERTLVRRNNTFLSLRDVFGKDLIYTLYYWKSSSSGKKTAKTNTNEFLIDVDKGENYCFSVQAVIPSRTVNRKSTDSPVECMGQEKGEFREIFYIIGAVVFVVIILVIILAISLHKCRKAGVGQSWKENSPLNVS
Sequence of tissue kallikrein (HK1) (P06870 25-262): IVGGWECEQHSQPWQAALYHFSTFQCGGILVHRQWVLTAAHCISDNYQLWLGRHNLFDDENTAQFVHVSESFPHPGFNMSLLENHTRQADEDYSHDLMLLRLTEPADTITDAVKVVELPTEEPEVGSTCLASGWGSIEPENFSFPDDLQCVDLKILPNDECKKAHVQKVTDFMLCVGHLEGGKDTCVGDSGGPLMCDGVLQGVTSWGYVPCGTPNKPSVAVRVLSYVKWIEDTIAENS

`CCS(=O)(=O)c1ccc2cc1CNC(=O)[C@H](Nc1ccc3c(N)nccc3c1)c1ccc(cc1)CCOC(=O)N2` [Comparator 2, reference compound]: on human FVIIa, the Ki (as a rule, a dissociation constant, usually derived from enzyme kinetics or from competition with a known ligand) amounted to 11 nM and the “Ki(HK1)/Ki(FVIIa)” value came out at 10. The same molecule came in with an inhibition constant Ki on tissue kallikrein (HK1) of 110 nM.

In the case of `Cc1cc2ccc1[C@@H](C)COC(=O)Nc1cc(F)c(S(=O)(=O)C(C)C)c(c1)CN(C)C(=O)[C@@H]2Nc1cc2ccnc(N)c2cc1F.O=C(O)C(F)(F)F` [Example 34, (2R,15R)-2-[(1-Amino-7-fluoroisoquinolin-6-yl)amino]-8-fluoro-4,15,17-trimethyl-7-(propane-2-sulfonyl)-13-oxa-4,11-diazatricyclo[14.2.2.1^6,10]henicosa-1(18),6,8,10 (21),16,19-hexaene-3,12-dione; trifluoroacetic acid], on human FVIIa, the inhibition constant Ki came to 0.14 nM and the “Ki(HK1)/Ki(FVIIa)” value was found to be 15000. This molecule had a Ki on tissue kallikrein (HK1) of 2100 nM.

In the case of `COCCCOc1c(F)cc2cc1CN(C)C(=O)[C@H](Nc1ccc3c(N)nccc3c1)c1ccc(c(C)c1)[C@@H](C)COC(=O)N2.O=C(O)C(F)(F)F` [Example 28, (2R,15R)-2-[(1-Aminoisoquinolin-6-yl)amino]-8-fluoro-7-(3-methoxypropoxy)-4,15,20-trimethyl-13-oxa-4,11-diazatricyclo[14.2.2.1^6,10]henicosa-1(18),6,8,10 (21),16,19-hexaene-3,12-dione; trifluoroacetic acid], at human FVIIa, the Ki came out at 0.2 nM and the “Ki(HK1)/Ki(FVIIa)” value amounted to 1450. Besides, on tissue kallikrein (HK1), the Ki was found to be 290 nM.

With `Cc1cc2ccc1[C@@H](C)COC(=O)Nc1ccc(C3(c4nnn[nH]4)CC3)c(c1)CN(C)C(=O)[C@@H]2Nc1ccc2c(N)nccc2c1.O=C(O)C(F)(F)F` [Example 36, (2R,15R)-2-[(1-Aminoisoquinolin-6-yl)amino]-4,15,20-trimethyl-7-[1-(1H-1,2,3,4-tetrazol-5-yl)cyclopropyl]-13-oxa-4,11-diazatricyclo[14.2.2.1^6,10]henicosa-1(18),6,8,10 (21),16,19-hexaene-3,12-dione; trifluoroacetic acid], at human FVIIa, the Ki came to 0.12 nM and the “Ki(HK1)/Ki(FVIIa)” value came to 1917. Besides, the affinity at tissue kallikrein (HK1), expressed as Ki, was 230 nM.

With `Cc1cc2cc(C)c1CC(O)CC(=O)Nc1ccc(S(=O)(=O)C3CC3)c(c1)CN(C)C(=O)[C@@H]2Nc1ccc2c(N)ncc(F)c2c1.O=C(O)C(F)(F)F` (stereo partly drawn) [Example 2, (2R)-2-[(1-Amino-4-fluoroisoquinolin-6-yl)amino]-7-(cyclopropanesulfonyl)-14-hydroxy-4,17,20-trimethyl-4,11-diazatricyclo[14.2.2.1^6,10]henicosa-1(18),6,8,10 (21),16,19-hexaene-3,12-dione; trifluoroacetic acid], the Ki at human FVIIa is 2.3 nM; at tissue kallikrein (HK1), 1620 nM. Also, the “Ki(HK1)/Ki(FVIIa)” value at human FVIIa worked out at 704.

Regarding `Cc1cc2ccc1[C@@H](C)COC(=O)Nc1cc(F)c(OC[C@H](C)O)c(c1)CN(C)C(=O)[C@@H]2Nc1ccc2c(N)nccc2c1.O=C(O)C(F)(F)F` [Example 17, (2R,15R)-2-[(1-Aminoisoquinolin-6-yl)amino]-8-fluoro-7-[(2S)-2-hydroxypropoxy]-4,15,20-trimethyl-13-oxa-4,11-diazatricyclo[14.2.2.1^6,10]henicosa-1(18),6,8,10 (21),16,19-hexaene-3,12-dione; trifluoroacetic acid], the inhibitory constant (Ki) on human FVIIa was found to be 0.46 nM; on tissue kallikrein (HK1) it was 400 nM. Further, at human FVIIa, the “Ki(HK1)/Ki(FVIIa)” value is recorded as 870.

Turning to `CC[C@@H](C(=O)O)c1ccc2cc1CN(C)C(=O)[C@H](Nc1ccc3c(N)ncc(F)c3c1)c1ccc(c(C)c1)[C@@H](C)COC(=O)N2.O=C(O)C(F)(F)F` [Example 13, (2R)-2-[(2R,15R)-2-[(1-Amino-4-fluoroisoquinolin-6-yl)amino]-4,15,17-trimethyl-3,12-dioxo-13-oxa-4,11-diazatricyclo[14.2.2.1^6,10]henicosa-1(18),6,8,10 (21),16,19-hexaen-7-yl]butanoic acid; trifluoroacetic acid], at human FVIIa, the Ki came out at 0.61 nM and the “Ki(HK1)/Ki(FVIIa)” value is on record as 623. Also, the affinity at tissue kallikrein (HK1) corresponds to a Ki of 380 nM.

Turning to `Cc1cc2cc(C)c1C(F)(F)COC(=O)Nc1ccc(S(=O)(=O)C3CC3)c(c1)CN(C)C(=O)[C@@H]2Nc1ccc2c(N)nccc2c1.O=C(O)C(F)(F)F` [Example 5, (2R)-2-[(1-Aminoisoquinolin-6-yl)amino]-7-(cyclopropanesulfonyl)-15,15-difluoro-4,17,20-trimethyl-13-oxa-4,11-diazatricyclo[14.2.2.1^6,10]henicosa-1(18),6,8,10 (21),16,19-hexaene-3,12-dione; trifluoroacetic acid], the Ki at human FVIIa was found to be 2 nM; on tissue kallikrein (HK1) it was 290 nM. Moreover, the “Ki(HK1)/Ki(FVIIa)” value on human FVIIa is 145.

For the molecule `Cc1cc2ccc1[C@@H](C)COC(=O)Nc1ccc(S(=O)(=O)C(C)(C)C)c(c1)CN(C)C(=O)[C@@H]2Nc1ccc2c(N)nccc2c1.O=C(O)C(F)(F)F` (stereo in doubt) [Example 22, (15R)-2-[(1-Aminoisoquinolin-6-yl)amino]-4,15,17-trimethyl-7-(2-methylpropane-2-sulfonyl)-13-oxa-4,11-diazatricyclo[14.2.2.1^6,10]henicosa-1(18),6,8,10 (21),16,19-hexaene-3,12-dione; trifluoroacetic acid], at human FVIIa, the Ki was determined as 0.31 nM and the “Ki(HK1)/Ki(FVIIa)” value is recorded as 2516. The inhibition constant (Ki) on tissue kallikrein (HK1) was found to be 780 nM.

Turning to `CCN(Cc1nccs1)C(=O)c1ccc2cc1CN(C)C(=O)[C@H](Nc1ccc3c(N)nccc3c1)c1ccc(c(C)c1)[C@@H](C)COC(=O)N2.O=C(O)C(F)(F)F` [Example 23, (2R,15R)-2-[(1-Aminoisoquinolin-6-yl)amino]-N-ethyl-4,15,17-trimethyl-3,12-dioxo-N-(1,3-thiazol-2-ylmethyl)-13-oxa-4,11-diazatricyclo[14.2.2.1^6,10]henicosa-1(18),6,8,10 (21),16,19-hexaene-7-carboxamide; trifluoroacetic acid], at human FVIIa, the Ki came out at 0.3 nM and the “Ki(HK1)/Ki(FVIIa)” value is listed as 1100. The affinity at tissue kallikrein (HK1) corresponds to a Ki of 330 nM.

`Cc1cc2ccc1[C@@H](C)COC(=O)Nc1ccc(S(=O)(=O)C(C)C)c(c1)CN(C)C(=O)[C@@H]2Nc1ccc2c(N)ncc(F)c2c1.O=C(O)C(F)(F)F` [Example 8, (2R,15R)-2-[(1-Amino-4-fluoroisoquinolin-6-yl)amino]-4,15,17-trimethyl-7-(propane-2-sulfonyl)-13-oxa-4,11-diazatricyclo[14.2.2.1^6,10]henicosa-1(18),6,8,10 (21),16,19-hexaene-3,12-dione; trifluoroacetic acid]: on human FVIIa, the Ki is 1.2 nM and the “Ki(HK1)/Ki(FVIIa)” value amounted to 583. This molecule also returned a Ki at tissue kallikrein (HK1) of 700 nM.

Regarding `Cc1cc2ccc1[C@@H](C)COC(=O)Nc1cc(F)c(OC[C@H](O)C3CC3)c(c1)CN(C)C(=O)[C@@H]2Nc1ccc2c(N)nccc2c1.O=C(O)C(F)(F)F` (stereo in doubt) [Example 21, (2R,15R)-2-[(1-Aminoisoquinolin-6-yl)amino]-7-[(2S)-2-cyclopropyl-2-hydroxyethoxy]-8-fluoro-4,15,20-trimethyl-13-oxa-4,11-diazatricyclo[14.2.2.16,10]henicosa-1(18),6,8,10 (21),16,19-hexaene-3,12-dione; trifluoroacetic acid], at human FVIIa, the inhibition constant (Ki) came out at 0.34 nM and the “Ki(HK1)/Ki(FVIIa)” value is 1618. The same molecule returned an inhibition constant Ki at tissue kallikrein (HK1) of 550 nM.

Take `Cc1cc2ccc1[C@@H](C)COC(=O)Nc1cc(F)c(O[C@@H]3CCOC3)c(c1)CN(C)C(=O)[C@@H]2Nc1ccc2c(N)nccc2c1.O=C(O)C(F)(F)F` [Example 38, (2R,15R)-2-[(1-Aminoisoquinolin-6-yl)amino]-8-fluoro-4,15,20-trimethyl-7-[(3R)-oxolan-3-yloxy]-13-oxa-4,11-diazatricyclo[14.2.2.1^6,10]henicosa-1(18),6,8,10 (21),16,19-hexaene-3,12-dione; trifluoroacetic acid]: the inhibitory constant (Ki) on human FVIIa was determined as 0.05 nM; at tissue kallikrein (HK1), 290 nM. Moreover, the “Ki(HK1)/Ki(FVIIa)” value at human FVIIa stood at 5800.

Consider `Cc1cc2ccc1[C@@H](C)COC(=O)Nc1cc(F)c(S(=O)(=O)C3CC3)c(c1)CN(C)C(=O)[C@@H]2Nc1cc2ccnc(N)c2cc1F.O=C(O)C(F)(F)F` [Example 29, (2R,15R)-2-[(1-Amino-7-fluoroisoquinolin-6-yl)amino]-7-(cyclopropanesulfonyl)-8-fluoro-4,15,17-trimethyl-13-oxa-4,11-diazatricyclo[14.2.2.1^6,10]henicosa-1(18),6,8,10 (21),16,19-hexaene-3,12-dione; trifluoroacetic acid], for which, on human FVIIa, the Ki came out at 0.17 nM and the “Ki(HK1)/Ki(FVIIa)” value stood at 4412. This molecule also yielded an inhibition constant Ki on tissue kallikrein (HK1) of 750 nM.

Turning to `Cc1cc2ccc1[C@@H](C)COC(=O)Nc1ccc(C(=O)N3CCC3)c(c1)CN(C)C(=O)[C@@H]2Nc1ccc2c(N)nccc2c1.O=C(O)C(F)(F)F` [Example 7, (2R,15R)-2-[(1-Aminoisoquinolin-6-yl)amino]-7-(azetidine-1-carbonyl)-4,15,17-trimethyl-13-oxa-4,11-diazatricyclo[14.2.2.16,10]henicosa-1(18),6,8,10 (21),16,19-hexaene-3,12-dione; trifluoroacetic acid], at human FVIIa, the inhibition constant Ki worked out at 1.2 nM and the “Ki(HK1)/Ki(FVIIa)” value is given as 525. The inhibition constant Ki at tissue kallikrein (HK1) was 630 nM.

In the case of `Cc1cc2ccc1[C@@H](C)COC(=O)Nc1cc(F)c(O[C@H](C)CO)c(c1)CN(C)C(=O)[C@@H]2Nc1ccc2c(N)nccc2c1.O=C(O)C(F)(F)F` [Example 30, (2R,15R)-2-[(1-Aminoisoquinolin-6-yl)amino]-8-fluoro-7-{[(2R)-1-hydroxypropan-2-yl]oxy}-4,15,20-trimethyl-13-oxa-4,11-diazatricyclo[14.2.2.16,10]henicosa-1(18),6,8,10 (21),16,19-hexaene-3,12-dione; trifluoroacetic acid], at human FVIIa, the Ki turned out to be 0.17 nM and the “Ki(HK1)/Ki(FVIIa)” value worked out at 412. The molecule further displayed a Ki at tissue kallikrein (HK1) of 70 nM.
